In brackets after ≈: the same amount, converted by molar mass.
What was measured:
[1] = molecular target: Muscarinic acetylcholine receptor 2 (M2) (Homo sapiens, UniProt P08172); assay: Selectivity data (Table S1); format: binding
[2] = molecular target: ATP-binding cassette, sub-family B, member 11 (ABCB11) (Homo sapiens, UniProt O95342); assay: Selectivity data (Table S1)
[3] = molecular target: Sodium channel, neuronal alpha-subunit (NaV1.1) (Homo sapiens, UniProt P35498); assay: Selectivity data (Table S1)
[4] = molecular target: Phosphodiesterase 3B (PDE3B) (Homo sapiens, UniProt Q13370); assay: Selectivity data (Table S1); format: biochemical
[5] = molecular target: Proto-oncogene tyrosine-protein kinase (SRC) (Homo sapiens, UniProt P12931); assay: Selectivity data (Table S1); format: biochemical
Sequence of Proto-oncogene tyrosine-protein kinase (SRC) (P12931 whole entry): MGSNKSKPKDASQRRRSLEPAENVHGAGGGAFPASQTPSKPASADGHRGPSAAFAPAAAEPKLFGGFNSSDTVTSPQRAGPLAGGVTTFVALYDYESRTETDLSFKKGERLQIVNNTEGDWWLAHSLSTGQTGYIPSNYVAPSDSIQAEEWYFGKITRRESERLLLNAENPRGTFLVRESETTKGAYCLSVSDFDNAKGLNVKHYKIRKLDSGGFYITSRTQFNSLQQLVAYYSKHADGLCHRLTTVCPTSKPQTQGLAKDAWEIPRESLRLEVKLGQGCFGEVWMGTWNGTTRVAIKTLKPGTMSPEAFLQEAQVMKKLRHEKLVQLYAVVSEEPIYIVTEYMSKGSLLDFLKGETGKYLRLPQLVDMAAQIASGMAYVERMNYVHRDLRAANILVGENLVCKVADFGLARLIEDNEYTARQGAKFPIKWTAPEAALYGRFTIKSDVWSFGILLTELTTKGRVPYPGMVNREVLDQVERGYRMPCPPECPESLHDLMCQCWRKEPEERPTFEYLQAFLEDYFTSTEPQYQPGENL

[6] = molecular target: Adrenergic receptor, beta-1 (ADRB1) (Homo sapiens, UniProt P08588); assay: Selectivity data (Table S1); format: binding
[7] = Aqueous solubility; format: physicochemical; details: aqueous medium at pH 7.4, pH 7.4, aqueous buffer; read-out: Solubility7.4
[8] = system: human hepatocytes; assay: U-[13C]-citrate uptake and incorporation into TCA cycle intermediates in human hepatocytes; format: cell-based; details: 500 μM U-[13C]-citrate, 30 μM compound
Description: Primary hepatocytes were given the indicated substrates (compound and labeled citrate) under the same conditions used to generate the IC50 curves. Incubations were stopped by rapidly removing culture media and adding 80% methanol pre-cooled in dry ice. Cellular debris was removed by centrifugation and samples dried by Speedvac. Dried cell extracts were then re-dissolved in 100 μL HPLC-grade water. Citrate uptake was analyzed by injecting a 10 μL aliquot of sample onto an Imtakt UK-Phenyl (2.1 mm × 150 mm) column (Imtakt USA, Philadelphia, PA, USA) using a Waters Acquity UPLC system (Waters Corp., Milford, MA, USA) coupled to a Thermo Q-Exactive mass spectrometer (Thermo Corp., San Jose, CA, USA). […] Metabolites were monitored using negative ion electrospray, ESI(-), in full scan mode with a resolution of 70,000 FWHM calibrated to mass accuracy <2 ppm. […] Citrate transport was determined through enrichment of ^13C6-citrate into the intracellular pool of citrate as determined by the percent ^13C6-citrate in the total pool. Fate of citrate carbon through one turn of the TCA cycle was analyzed by comparing percent labeling into the respective pools of ^13C4-fumarate, ^13C4-malate, and ^13C4-glutamate. Thermo LCQuan (Thermo Corp, San Jose, CA, USA) was used to extract out exact mass using a 5 ppm window at the calculated accurate mass for each metabolite and its isotopomer. […]

[9] = molecular target: Phosphodiesterase 5A1 (PDE5A1) (Homo sapiens, UniProt O76074); assay: Selectivity data (Table S1); format: biochemical
[10] = molecular target: Angiotensin II receptor type 1 (AGTR1) (Homo sapiens, UniProt P30556); assay: Selectivity data (Table S1); format: binding
Sequence of Angiotensin II receptor type 1 (AGTR1) (P30556 whole entry): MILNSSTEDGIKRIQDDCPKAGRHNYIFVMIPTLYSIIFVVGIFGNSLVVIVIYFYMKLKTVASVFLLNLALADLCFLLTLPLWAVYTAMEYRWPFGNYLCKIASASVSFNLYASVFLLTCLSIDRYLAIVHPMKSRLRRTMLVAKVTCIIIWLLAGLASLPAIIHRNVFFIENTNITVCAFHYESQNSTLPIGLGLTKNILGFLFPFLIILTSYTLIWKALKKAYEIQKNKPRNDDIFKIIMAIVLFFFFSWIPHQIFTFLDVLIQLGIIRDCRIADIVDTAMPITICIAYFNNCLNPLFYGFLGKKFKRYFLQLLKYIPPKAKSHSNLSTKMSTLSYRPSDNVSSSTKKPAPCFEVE

[11] = molecular target: Peroxisome proliferator activated receptor gamma (PPAR-gamma) (Homo sapiens, UniProt P37231); assay: Selectivity data (Table S1); format: binding
[12] = molecular target: Human ether-a-go-go (hERG) (Homo sapiens, UniProt Q12809); assay: Selectivity data (Table S1)
Sequence of Human ether-a-go-go (hERG) (Q12809 whole entry): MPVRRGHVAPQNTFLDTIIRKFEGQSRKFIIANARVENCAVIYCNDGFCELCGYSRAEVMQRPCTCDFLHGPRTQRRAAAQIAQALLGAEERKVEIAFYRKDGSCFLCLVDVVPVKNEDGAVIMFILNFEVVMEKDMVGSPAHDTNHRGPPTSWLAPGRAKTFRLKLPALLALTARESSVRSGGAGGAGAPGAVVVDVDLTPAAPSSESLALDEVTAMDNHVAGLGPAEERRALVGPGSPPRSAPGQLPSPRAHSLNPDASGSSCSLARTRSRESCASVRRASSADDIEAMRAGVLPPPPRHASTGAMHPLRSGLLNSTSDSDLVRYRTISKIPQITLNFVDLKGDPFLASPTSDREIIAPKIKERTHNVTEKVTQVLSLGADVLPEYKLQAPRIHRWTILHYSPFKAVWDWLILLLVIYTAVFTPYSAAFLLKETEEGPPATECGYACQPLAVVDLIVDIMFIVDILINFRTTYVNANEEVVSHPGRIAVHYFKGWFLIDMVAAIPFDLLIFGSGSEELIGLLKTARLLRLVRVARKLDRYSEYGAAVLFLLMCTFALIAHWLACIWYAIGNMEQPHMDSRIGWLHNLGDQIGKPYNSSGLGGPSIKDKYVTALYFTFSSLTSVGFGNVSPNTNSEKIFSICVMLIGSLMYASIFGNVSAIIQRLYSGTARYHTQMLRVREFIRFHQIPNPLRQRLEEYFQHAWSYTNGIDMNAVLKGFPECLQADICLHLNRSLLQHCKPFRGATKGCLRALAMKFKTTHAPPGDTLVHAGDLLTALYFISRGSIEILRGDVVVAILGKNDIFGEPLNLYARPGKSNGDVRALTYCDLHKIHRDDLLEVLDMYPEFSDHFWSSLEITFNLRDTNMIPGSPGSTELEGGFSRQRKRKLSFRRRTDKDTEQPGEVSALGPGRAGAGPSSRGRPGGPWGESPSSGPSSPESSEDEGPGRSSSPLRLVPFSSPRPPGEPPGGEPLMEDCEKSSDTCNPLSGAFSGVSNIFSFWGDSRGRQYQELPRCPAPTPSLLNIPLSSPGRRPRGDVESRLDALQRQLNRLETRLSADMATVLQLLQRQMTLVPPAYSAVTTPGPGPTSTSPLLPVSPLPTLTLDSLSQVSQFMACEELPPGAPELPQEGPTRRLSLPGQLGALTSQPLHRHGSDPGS

[13] = molecular target: Serotonin receptor 1A (5-HT1A) (Homo sapiens, UniProt P08908); assay: Selectivity data (Table S1); format: binding
[14] = molecular target: Angiotensin-converting enzyme 1 (ACE1) (Homo sapiens, UniProt P12821); assay: Selectivity data (Table S1); format: biochemical
[15] = molecular target: Opioid receptor, mu (MOP) (Homo sapiens, UniProt P35372); assay: Selectivity data (Table S1); format: binding
[16] = molecular target: Histamine receptor 1 (H1) (Homo sapiens, UniProt P35367); assay: Selectivity data (Table S1); format: binding
Sequence of Histamine receptor 1 (H1) (P35367 whole entry): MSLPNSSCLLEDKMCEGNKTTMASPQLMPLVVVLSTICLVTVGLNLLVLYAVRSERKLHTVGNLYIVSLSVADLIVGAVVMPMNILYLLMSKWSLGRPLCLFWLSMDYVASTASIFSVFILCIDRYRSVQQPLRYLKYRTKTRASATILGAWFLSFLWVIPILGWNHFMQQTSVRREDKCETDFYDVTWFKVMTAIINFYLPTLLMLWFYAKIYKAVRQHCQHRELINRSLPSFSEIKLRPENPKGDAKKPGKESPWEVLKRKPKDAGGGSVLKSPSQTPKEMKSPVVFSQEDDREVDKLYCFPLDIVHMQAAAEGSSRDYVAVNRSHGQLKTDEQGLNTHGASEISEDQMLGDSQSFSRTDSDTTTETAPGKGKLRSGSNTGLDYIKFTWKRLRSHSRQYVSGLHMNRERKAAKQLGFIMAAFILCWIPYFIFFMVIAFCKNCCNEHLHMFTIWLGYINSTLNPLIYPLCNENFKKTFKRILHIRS

[17] = system: HEKNaCT cells; assay: OCR and ECAR measurements in HEKNaCT cells incubated with citrate (Seahorse); format: cell-based, human; details: 30 μM compound
Description: HEKNaCT cells were plated at 12,000 cells/well onto a poly-d-lysine coated XF96 plate (Sigma, Seahorse Biosciences). Cells were plated in culture media containing HG DMEM, 10% FBS, 2 mM glutamine, 1 mM pyruvate, 0.5 mg/mL Geneticin, and 1% penicillin/streptomycin (Life Technologies) and incubated overnight at 37 °C. The following day, the media was changed to Seahorse Biosciences assay medium (Seahorse Biosciences) supplemented with 10 mM glucose and 2 mM pyruvate (Sigma). The plate was pre-incubated for 1 hour in a 37 °C air incubator. […]

[18] = molecular target: Adrenergic receptor, beta-2(ADRB2) (Homo sapiens, UniProt P07550); assay: Selectivity data (Table S1); format: binding
[19] = molecular target: Serotonin receptor 4e (5-HT4e) (Homo sapiens, UniProt Q13639); assay: Selectivity data (Table S1); format: binding
Sequence of Serotonin receptor 4e (5-HT4e) (Q13639 1-378 isoform Q13639-5): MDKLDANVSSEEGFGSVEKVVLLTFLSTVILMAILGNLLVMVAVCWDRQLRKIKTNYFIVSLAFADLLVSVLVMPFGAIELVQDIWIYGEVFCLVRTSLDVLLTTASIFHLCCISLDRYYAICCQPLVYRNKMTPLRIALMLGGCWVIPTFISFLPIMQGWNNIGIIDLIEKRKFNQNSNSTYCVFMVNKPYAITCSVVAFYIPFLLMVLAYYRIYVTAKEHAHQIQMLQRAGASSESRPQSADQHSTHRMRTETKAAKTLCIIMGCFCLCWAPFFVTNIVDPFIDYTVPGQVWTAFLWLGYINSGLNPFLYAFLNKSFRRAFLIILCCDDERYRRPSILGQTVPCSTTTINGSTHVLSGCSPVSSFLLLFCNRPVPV

[20] = molecular target: Dopamine transporter, sodium-dependent (DAT) (Homo sapiens, UniProt Q01959); assay: Selectivity data (Table S1)
[21] = molecular target: Phosphodiesterase 3A1 (PDE3A1) (Homo sapiens, UniProt Q14432); assay: Selectivity data (Table S1); format: biochemical
[22] = molecular target: Lymphocyte-specific protein tyrosine kinase (LCK) (Homo sapiens, UniProt P06239); assay: Selectivity data (Table S1); format: biochemical
[23] = molecular target: Muscarinic acetylcholine receptor 1 (M1) (Homo sapiens, UniProt P11229); assay: Selectivity data (Table S1); format: binding
Sequence of Muscarinic acetylcholine receptor 1 (M1) (P11229 whole entry): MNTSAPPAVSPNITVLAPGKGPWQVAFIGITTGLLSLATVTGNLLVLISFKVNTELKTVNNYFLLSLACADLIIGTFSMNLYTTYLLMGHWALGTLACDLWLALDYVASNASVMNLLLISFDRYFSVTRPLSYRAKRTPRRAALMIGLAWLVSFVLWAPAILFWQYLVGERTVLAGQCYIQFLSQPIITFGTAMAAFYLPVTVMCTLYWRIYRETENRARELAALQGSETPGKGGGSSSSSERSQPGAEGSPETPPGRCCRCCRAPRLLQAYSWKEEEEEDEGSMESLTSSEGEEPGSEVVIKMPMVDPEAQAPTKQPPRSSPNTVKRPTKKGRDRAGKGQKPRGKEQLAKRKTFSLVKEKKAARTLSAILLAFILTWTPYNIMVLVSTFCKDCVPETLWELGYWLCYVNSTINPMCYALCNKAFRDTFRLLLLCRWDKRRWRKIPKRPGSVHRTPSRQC

Sequence of ATP-binding cassette, sub-family B, member 11 (ABCB11) (O95342 whole entry, species assumed): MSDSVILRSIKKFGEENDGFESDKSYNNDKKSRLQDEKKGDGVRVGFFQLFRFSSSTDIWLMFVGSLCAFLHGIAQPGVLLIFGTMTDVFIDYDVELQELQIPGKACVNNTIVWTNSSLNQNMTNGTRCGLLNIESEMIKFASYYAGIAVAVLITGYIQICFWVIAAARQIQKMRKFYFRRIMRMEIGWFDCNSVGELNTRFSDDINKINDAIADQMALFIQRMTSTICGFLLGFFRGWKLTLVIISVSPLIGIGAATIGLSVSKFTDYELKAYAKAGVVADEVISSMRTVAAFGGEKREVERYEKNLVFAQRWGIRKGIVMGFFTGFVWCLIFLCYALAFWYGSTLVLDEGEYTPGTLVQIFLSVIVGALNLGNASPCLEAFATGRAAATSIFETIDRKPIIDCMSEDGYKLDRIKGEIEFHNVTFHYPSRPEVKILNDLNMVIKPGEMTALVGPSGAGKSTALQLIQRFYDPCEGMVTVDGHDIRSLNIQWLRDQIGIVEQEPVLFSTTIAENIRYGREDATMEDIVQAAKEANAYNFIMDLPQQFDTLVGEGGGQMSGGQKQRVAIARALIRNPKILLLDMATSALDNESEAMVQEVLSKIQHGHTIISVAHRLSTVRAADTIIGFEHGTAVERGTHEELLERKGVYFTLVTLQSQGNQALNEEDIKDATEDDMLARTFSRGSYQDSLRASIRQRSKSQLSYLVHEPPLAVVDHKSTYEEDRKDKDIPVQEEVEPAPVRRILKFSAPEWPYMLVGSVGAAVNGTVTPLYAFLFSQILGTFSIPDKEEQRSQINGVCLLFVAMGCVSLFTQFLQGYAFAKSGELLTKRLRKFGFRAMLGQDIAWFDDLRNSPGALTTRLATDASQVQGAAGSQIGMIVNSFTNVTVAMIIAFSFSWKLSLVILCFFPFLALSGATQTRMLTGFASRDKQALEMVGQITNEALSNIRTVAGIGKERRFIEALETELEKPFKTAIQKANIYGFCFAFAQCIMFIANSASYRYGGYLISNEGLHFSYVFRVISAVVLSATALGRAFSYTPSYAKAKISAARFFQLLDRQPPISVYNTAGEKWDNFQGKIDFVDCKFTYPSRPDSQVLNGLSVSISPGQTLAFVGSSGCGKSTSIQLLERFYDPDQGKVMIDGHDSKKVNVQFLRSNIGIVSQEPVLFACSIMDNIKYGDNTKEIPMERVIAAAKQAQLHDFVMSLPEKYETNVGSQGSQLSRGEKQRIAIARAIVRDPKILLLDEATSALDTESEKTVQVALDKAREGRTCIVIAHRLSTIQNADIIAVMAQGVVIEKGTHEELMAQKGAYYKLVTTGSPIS

Structure (SMILES): CC(C)(C)c1ccc(CC[C@@](O)(CC(=O)O)C(=O)O)cc1 [Compound 2]
- inhibition at 100 µM [1]: < 10%
- IC50 [2]: > 200 µM
- inhibition at 10 µM [3]: < 10%
- inhibition at 100 µM [4]: < 10%
- inhibition at 100 µM [5]: < 10%
- inhibition at 100 µM [6]: < 10%
- solubility [7]: 33 mM (≈ 9710 µg/mL)
- uniform labeling of citrate, malate, glutamate and fumarate from U-[13C]-citrate [8]: reduced
- IC50 [9]: > 30 µM
- inhibition at 100 µM [10]: < 10%
- inhibition at 100 µM [11]: < 10%
- IC50 [12]: > 100 µM
- interaction/inhibition of the hERG channel [12]: no significant interaction/inhibition
- inhibition at 100 µM [13]: < 10%
- inhibition at 100 µM [14]: < 10%
- inhibition at 100 µM [15]: < 10%
- inhibition at 100 µM [16]: < 10%
- effect on citrate induced increase in oxygen consumption rate (OCR) [17]: prevented citrate induced increase in mitochondrial respiration
- effect on citrate suppressed extracellular acidification rate (ECAR) ([17]; citrate): restored
- inhibition at 100 µM [18]: < 10%
- inhibition at 100 µM [19]: < 10%
- inhibition at 100 µM [20]: < 10%
- IC50 [21]: > 30 µM
- inhibition at 100 µM [22]: < 10%
- inhibition at 100 µM [23]: < 10%
